Numbers after ± are expanded uncertainties.
Legend:
[1] = mn = molality of the nth substance listed, in mol/kg; conditions: 99 kPa, Liquid, Alternating current cell with electrodes
[2] = 99 kPa, Liquid, Alternating current cell with electrodes

O [water] + CCCCCCCCCCCC[N+](C)(C)C.[Br-]
[1], m2 = 0
Conditions	electrical conductivity [S/m]
288.15 K	0.0005
293.15 K	0.000281
298.15 K	0.000585
303.15 K	0.000687
308.15 K	0.00057
313.15 K	0.000608
318.15 K	0.000835

O [water]
[2]
Conditions	electrical conductivity [S/m]
288.15 K	0.0005
293.15 K	0.000281
298.15 K	0.000585
303.15 K	0.000687
308.15 K	0.00057
313.15 K	0.000608
318.15 K	0.000835

CCCC[N+](CCCC)(CCCC)CCCC.[Br-] [tetrabutylammonium bromide] + O
[1], m1 = 0.01
Conditions	electrical conductivity [S/m]
288.15 K	0.106 ± 0.0053
293.15 K	0.0894 ± 0.0046
298.15 K	0.0829 ± 0.0048
303.15 K	0.0841 ± 0.0061
308.15 K	0.083 ± 0.0053
313.15 K	0.0843 ± 0.0051
318.15 K	0.0856 ± 0.0062

CCCCC[N+](CCCCC)(CCCCC)CCCCC.[Br-] [tetrapentylammonium bromide] + O
[1], m1 = 0.01
Conditions	electrical conductivity [S/m]
288.15 K	0.0961 ± 0.0048
293.15 K	0.0898 ± 0.0053
298.15 K	0.0879 ± 0.0055
303.15 K	0.09 ± 0.0061
308.15 K	0.0897 ± 0.0061
313.15 K	0.0881 ± 0.0059
318.15 K	0.0903 ± 0.006

Reference: the NIST ThermoML archive (doi:10.1016/j.jct.2014.07.003)
